{"source": "ChEMBL document CHEMBL1201862", "about": "“PubChem BioAssay data set” (2004)", "assay_type_in_all_cases": "functional", "key": {"[1]": {"target": "MAP/microtubule affinity-regulating kinase 4 (Homo sapiens, UniProt Q96L34)", "sequence (Q96L34 whole entry)": "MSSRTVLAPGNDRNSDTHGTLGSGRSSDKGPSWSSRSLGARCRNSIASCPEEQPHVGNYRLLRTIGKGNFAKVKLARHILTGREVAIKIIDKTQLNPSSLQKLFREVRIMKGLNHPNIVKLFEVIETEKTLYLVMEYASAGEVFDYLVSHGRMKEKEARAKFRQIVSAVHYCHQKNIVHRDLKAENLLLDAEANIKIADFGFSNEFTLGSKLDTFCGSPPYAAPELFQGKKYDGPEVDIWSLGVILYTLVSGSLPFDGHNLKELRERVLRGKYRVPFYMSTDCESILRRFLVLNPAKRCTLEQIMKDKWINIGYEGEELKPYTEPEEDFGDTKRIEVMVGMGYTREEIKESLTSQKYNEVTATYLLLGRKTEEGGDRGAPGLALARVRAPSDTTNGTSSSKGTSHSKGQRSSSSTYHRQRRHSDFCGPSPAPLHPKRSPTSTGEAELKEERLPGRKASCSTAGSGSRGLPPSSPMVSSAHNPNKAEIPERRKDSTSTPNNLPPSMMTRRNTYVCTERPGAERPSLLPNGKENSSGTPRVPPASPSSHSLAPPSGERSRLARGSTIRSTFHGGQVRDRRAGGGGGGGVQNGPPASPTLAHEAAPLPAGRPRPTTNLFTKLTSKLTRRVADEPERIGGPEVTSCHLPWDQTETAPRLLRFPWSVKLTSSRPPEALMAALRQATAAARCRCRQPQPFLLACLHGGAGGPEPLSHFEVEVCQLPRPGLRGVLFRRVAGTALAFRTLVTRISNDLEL", "assay": "Navigating the Kinome. Panel member name: MARK4"}, "[2]": {"target": "Tyrosine-protein kinase Lyn (Homo sapiens, UniProt P07948)", "sequence (P07948 whole entry)": "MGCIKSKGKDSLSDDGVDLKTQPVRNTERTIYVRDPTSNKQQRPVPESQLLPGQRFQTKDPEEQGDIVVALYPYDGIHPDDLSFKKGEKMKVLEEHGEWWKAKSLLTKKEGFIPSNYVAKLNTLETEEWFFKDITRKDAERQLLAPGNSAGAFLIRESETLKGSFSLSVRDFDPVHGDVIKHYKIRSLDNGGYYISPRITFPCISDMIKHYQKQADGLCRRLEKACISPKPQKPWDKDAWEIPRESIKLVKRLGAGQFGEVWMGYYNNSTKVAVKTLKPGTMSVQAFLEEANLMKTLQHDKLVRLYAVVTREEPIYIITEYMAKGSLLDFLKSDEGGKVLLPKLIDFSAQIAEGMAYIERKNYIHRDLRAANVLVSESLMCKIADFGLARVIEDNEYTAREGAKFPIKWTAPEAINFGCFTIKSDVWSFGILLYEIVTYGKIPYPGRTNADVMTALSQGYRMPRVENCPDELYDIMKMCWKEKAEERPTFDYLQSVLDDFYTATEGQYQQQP"}, "[3]": {"target": "Mitogen-activated protein kinase 9 (Homo sapiens, UniProt P45984)", "sequence (P45984 whole entry)": "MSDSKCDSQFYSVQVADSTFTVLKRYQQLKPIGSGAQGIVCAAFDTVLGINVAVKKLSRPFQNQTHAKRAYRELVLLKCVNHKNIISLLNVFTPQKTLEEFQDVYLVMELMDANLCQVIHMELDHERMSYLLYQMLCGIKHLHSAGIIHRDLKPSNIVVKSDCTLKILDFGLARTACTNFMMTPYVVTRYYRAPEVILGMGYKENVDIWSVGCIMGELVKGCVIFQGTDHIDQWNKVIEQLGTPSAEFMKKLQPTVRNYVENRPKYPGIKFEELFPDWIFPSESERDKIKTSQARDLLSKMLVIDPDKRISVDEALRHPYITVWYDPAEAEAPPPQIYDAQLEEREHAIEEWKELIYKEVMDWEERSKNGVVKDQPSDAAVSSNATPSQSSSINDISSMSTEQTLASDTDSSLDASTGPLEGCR"}, "[4]": {"target": "Testis-specific serine/threonine-protein kinase 1 (Homo sapiens, UniProt Q9BXA7)", "sequence (Q9BXA7 whole entry)": "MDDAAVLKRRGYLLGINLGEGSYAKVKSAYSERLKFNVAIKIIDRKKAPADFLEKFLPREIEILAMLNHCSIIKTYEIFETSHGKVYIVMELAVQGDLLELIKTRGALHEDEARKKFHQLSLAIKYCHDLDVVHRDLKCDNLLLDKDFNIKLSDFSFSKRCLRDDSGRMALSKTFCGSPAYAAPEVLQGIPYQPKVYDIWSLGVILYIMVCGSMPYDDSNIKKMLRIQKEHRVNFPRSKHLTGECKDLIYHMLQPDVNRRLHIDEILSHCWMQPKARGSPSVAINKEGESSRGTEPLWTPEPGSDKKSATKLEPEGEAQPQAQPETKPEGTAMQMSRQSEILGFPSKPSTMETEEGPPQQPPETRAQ"}, "[5]": {"target": "Mitogen-activated protein kinase 13 (Homo sapiens, UniProt O15264)", "sequence (O15264 whole entry)": "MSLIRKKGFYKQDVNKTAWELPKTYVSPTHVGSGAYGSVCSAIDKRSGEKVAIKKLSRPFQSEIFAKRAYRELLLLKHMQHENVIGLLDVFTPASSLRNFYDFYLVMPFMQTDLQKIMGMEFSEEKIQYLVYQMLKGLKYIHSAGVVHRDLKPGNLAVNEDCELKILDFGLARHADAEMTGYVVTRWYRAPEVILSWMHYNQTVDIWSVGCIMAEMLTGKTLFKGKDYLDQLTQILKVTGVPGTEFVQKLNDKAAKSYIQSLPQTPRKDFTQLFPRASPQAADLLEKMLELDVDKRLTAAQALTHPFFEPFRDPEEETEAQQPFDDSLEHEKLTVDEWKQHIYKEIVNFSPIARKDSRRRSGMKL"}, "[6]": {"target": "Tyrosine-protein kinase Fer (Homo sapiens, UniProt P16591)", "sequence (P16591 whole entry)": "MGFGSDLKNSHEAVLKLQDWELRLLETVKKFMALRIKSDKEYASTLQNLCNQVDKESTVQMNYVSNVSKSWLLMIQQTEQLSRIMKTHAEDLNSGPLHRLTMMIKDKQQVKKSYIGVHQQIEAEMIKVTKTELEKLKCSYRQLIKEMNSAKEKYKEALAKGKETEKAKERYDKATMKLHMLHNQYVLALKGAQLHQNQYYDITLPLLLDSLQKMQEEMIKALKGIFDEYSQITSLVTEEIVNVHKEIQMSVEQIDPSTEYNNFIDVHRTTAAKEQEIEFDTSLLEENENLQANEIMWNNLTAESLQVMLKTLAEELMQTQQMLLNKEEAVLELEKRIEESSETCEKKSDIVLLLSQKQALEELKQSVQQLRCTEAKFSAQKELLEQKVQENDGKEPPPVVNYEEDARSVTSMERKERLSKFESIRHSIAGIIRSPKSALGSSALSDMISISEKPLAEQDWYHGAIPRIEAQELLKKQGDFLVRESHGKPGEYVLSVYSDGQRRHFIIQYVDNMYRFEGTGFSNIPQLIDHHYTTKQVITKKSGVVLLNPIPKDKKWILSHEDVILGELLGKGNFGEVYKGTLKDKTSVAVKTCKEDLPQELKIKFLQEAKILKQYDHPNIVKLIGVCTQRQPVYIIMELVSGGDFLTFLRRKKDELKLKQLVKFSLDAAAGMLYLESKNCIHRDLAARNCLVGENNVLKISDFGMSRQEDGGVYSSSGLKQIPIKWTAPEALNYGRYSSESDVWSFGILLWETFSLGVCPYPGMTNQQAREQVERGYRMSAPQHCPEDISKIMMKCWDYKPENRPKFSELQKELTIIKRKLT"}, "[7]": {"target": "Cyclin-dependent kinase 9 (Homo sapiens, UniProt P50750)", "sequence (P50750 whole entry)": "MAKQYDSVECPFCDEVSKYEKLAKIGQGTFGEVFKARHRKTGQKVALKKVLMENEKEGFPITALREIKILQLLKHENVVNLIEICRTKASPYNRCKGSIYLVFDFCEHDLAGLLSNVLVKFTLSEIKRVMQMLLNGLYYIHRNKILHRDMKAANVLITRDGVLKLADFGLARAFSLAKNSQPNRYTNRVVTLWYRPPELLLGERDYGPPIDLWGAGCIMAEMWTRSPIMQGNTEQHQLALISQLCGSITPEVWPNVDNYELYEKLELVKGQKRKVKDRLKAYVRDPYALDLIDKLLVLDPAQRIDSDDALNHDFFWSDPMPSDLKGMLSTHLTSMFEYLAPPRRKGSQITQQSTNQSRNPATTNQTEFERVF"}, "Protein Tat": {"target": "T1, Protein Tat (Human immunodeficiency virus type 1 group M subtype B (isolate HXB2)(HIV-1), UniProt P04608)", "T1 sequence (P04608 whole entry)": "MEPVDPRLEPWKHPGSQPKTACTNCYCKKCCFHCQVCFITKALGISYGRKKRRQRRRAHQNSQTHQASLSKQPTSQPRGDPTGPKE"}}, "note": "The source made the active and inactive calls.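 Wherever IC50 is given: tat binding to TAR RNA read out by fluorescence polarization.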"}
{"smiles": "OC1CCC(Nc2cc(Cl)nc(-c3c[nH]c4ncccc34)n2)CC1", "note": "(stereo not drawn)", "values": [{"measurement": "Ki", "setting": "[1]", "result": "398 nM (active)"}, {"measurement": "Ki", "setting": "[2]", "result": "> 1000 nM (inactive)"}, {"measurement": "Ki", "setting": "[3]", "result": "3160 nM (active)"}, {"measurement": "Ki", "setting": "[4]", "result": "> 1000 nM (inactive)"}, {"measurement": "Ki", "setting": "[5]", "result": "1260 nM (active)"}, {"measurement": "Ki", "setting": "[6]", "result": "501 nM (active)"}, {"measurement": "Ki", "setting": "[7]", "result": "251 nM (active)"}]}
{"smiles": "COCC/N=c1\\scc(-c2cccs2)n1/N=C/c1ccc(O)c(O)c1O", "values": [{"measurement": "IC50", "setting": "Protein Tat", "result": "> 100000 nM (inconclusive)"}]}
